Source: ChEMBL document CHEMBL2203135, “Novel progesterone receptor modulators: 4-aryl-phenylsulfonamides” (Bioorg Med Chem Lett, 2012)

What was measured:
Progesterone receptor = target: T1, Progesterone receptor (Homo sapiens, UniProt P06401); assay: Antagonist activity against progesterone receptor in human T47D cells by alkaline phosphatase assay; type: functional, cell-based
T1 sequence (P06401 whole entry): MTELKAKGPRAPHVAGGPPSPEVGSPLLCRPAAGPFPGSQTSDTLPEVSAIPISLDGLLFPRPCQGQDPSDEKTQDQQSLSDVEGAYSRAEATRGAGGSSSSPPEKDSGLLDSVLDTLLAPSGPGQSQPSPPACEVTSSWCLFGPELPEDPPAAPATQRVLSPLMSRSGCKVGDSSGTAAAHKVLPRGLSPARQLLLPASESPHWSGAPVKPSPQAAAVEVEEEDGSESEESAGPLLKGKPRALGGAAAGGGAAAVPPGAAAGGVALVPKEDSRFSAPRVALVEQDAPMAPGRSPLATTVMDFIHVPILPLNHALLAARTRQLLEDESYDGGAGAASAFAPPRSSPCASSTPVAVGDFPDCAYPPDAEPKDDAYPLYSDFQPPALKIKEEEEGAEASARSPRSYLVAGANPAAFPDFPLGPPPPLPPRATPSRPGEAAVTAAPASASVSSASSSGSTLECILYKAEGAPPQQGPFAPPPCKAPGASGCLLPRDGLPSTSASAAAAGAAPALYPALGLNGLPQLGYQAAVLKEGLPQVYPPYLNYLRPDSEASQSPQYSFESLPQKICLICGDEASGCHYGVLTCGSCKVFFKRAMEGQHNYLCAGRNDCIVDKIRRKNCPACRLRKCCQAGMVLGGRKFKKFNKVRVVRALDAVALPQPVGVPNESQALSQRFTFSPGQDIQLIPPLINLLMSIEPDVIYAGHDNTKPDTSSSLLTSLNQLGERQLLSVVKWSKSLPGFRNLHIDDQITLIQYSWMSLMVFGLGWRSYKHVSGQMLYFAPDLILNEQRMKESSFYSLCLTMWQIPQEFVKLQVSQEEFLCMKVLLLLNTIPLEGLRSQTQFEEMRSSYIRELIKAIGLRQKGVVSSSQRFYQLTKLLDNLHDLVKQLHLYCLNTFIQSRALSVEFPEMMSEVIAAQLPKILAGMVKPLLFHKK

Salmonella typhimurium [1] = assay: Mutagenicity in Salmonella typhimurium in presence of liver S9 fraction by non-GLP Ames test; type: toxicity, organism-based; details: salmonella enterica subsp. enterica serovar typhimurium
[2] = AUC (0 to infinity) in rat at 20 mg/kg, po administered as single dose; type: ADME, organism-based; set-up: time infinity, dose 20 mg/kg, route oral; details: plasma
[3] = Cmax in rat at 20 mg/kg, po administered as single dose; type: ADME, organism-based; set-up: dose 20 mg/kg, route oral; details: in vivo
[4] = Half life in rat at 20 mg/kg, po administered as single dose; type: ADME, organism-based; set-up: dose 20 mg/kg, route oral; details: in vivo
Salmonella typhimurium [5] = assay: Mutagenicity in Salmonella typhimurium in absence of liver S9 fraction by non-GLP Ames test; type: toxicity, organism-based; details: salmonella enterica subsp. enterica serovar typhimurium
[6] = target: T2, Progesterone receptor (Homo sapiens) (UniProt P06401); assay: Antagonist activity against progesterone receptor in human T47D cells at 3 uM by alkaline phosphatase assay; type: functional, cell-based
T2 sequence (whole entry): T1 sequence (P06401 whole entry)

Work on CCS(=O)(=O)Nc1ccc(-c2ccc(C#N)n2C)c(F)c1 yielded an IC50 (Progesterone receptor) of 6 nM.

With Cn1c(C#N)ccc1-c1ccc(N)cc1 the Activity (Salmonella typhimurium [1]) was “Toxic”, the AUC(0-inf) [2] was 3080 ng·h/mL and the Cmax [3] was 3.2 µM. For the same molecule, the half-life [4] was 2.5 h.

CC(=O)Nc1ccc(-c2ccc(C#N)n2C)cc1 gave an AUC(0-inf) [2] of 1640 ng·h/mL, a Cmax [3] of 0.7 µM and an IC50 (Progesterone receptor) of 75 nM. For the same molecule, the half-life [4] was 5 h.

With CCS(=O)(=O)Nc1ccc(-c2ccc(C#N)n2C)c(C(F)(F)F)c1 the Activity (Salmonella typhimurium [1]) was “Non-toxic” and the IC50 (Progesterone receptor) was 12 nM.

Molecule CCCS(=O)(=O)Nc1ccc(-c2ccc(C#N)n2C)cc1 has an IC50 (Progesterone receptor) of 10 nM.

For CCS(=O)(=O)Nc1ccc(-c2ccc(C#N)n2C)cc1, the Activity (Salmonella typhimurium [1]) was “Toxic”, the AUC(0-inf) [2] was 12300 ng·h/mL and the Cmax [3] was 6.7 µM. For the same molecule, the Activity (Salmonella typhimurium [5]) was “Non-toxic”, the IC50 (Progesterone receptor) was 9 nM and the half-life [4] was 2.5 h.

In the case of Cn1c(C#N)ccc1-c1ccc(NS(C)(=O)=O)cc1, the IC50 (Progesterone receptor) is reported as 8 nM.

Cc1ccc(S(=O)(=O)Nc2ccc(-c3ccc(C#N)n3C)cc2)cc1 gave an inhibition [6] of 55%.

In the case of Cn1c(C#N)ccc1-c1ccc(NS(C)(=O)=O)cc1F, the Activity (Salmonella typhimurium [1]) is reported as “Non-toxic”, the Activity (Salmonella typhimurium [5]) is reported as “Non-toxic” and the IC50 (Progesterone receptor) is reported as 8 nM.

For Cn1c(C#N)ccc1-c1ccc(NS(C)(=O)=O)c(C#N)c1, the IC50 (Progesterone receptor) was > 3000 nM.

For CCS(=O)(=O)Nc1cc(F)c(-c2ccc(C#N)n2C)cc1F, the IC50 (Progesterone receptor) was 57 nM.

For CCS(=O)(=O)Nc1ccc(-c2ccc(C#N)n2C)c(C#N)c1, the IC50 (Progesterone receptor) was 128 nM.

CC(C)c1ccc(S(=O)(=O)Nc2ccc(-c3ccc(C#N)n3C)cc2)cc1 showed an inhibition [6] of 54%.
